Measured values as given in ChEMBL document CHEMBL1909046, “DrugMatrix in vitro pharmacology data”.

What was measured:
Substance-K receptor = biological target: T1, Substance-K receptor (Homo sapiens, UniProt P21452); assay type: cell membranes, CHO, Membrane; note: in other assays of this panel Not Active means under 50% inhibition at 10 µM
T1 sequence (P21452 whole entry): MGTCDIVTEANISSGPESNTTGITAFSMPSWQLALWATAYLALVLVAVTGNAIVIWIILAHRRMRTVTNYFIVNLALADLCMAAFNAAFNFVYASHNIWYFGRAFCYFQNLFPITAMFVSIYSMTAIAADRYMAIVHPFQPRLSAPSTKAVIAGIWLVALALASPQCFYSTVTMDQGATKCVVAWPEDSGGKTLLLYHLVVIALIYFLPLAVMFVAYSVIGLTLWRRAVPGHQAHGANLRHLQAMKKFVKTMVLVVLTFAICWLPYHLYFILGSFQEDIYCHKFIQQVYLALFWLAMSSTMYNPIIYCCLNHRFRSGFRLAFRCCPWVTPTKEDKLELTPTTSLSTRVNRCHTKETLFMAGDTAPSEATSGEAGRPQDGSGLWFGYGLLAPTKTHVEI

[1] = biological target: Mitogen-activated protein kinase 14 (Homo sapiens, UniProt Q16539); design: species or system Escherichia coli;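 note: inhibition of p38alpha enzyme activity in a biochemical kinase assay, with myelin basic protein serving as substrate; in other assays of this panel Not Active means under 50% inhibition at 10 µM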
[2] = biological target: T2, Amine oxidase [flavin-containing] A (Homo sapiens, UniProt P21397); test: DRUGMATRIX: Monoamine Oxidase MAO-A enzyme inhibition (substrate: Kynuramine); design: species or system BTI-TN-5B1-4; conditions: Not Active = under 50% inhibition at 10 µM
T2 sequence (P21397 whole entry): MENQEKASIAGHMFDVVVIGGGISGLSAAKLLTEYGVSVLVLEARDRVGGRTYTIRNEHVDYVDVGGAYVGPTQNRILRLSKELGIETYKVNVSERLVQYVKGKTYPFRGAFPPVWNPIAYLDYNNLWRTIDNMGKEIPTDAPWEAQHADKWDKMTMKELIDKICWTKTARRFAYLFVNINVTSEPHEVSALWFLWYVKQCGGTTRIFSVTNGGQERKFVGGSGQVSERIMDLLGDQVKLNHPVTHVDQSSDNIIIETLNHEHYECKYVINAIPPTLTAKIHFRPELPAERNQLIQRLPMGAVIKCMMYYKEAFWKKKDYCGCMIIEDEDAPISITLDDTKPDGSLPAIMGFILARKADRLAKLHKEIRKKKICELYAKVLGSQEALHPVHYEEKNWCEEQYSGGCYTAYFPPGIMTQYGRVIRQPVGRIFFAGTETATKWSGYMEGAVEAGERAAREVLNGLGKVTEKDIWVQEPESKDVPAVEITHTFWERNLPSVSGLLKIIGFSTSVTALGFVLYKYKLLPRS

[3] = DRUGMATRIX: Nicotinic Acetylcholine radioligand binding (ligand: [125I] Epibatidine); assay type: cell membranes, Membrane; conditions: imr-32; Not Active = under 50% inhibition at 10 µM
[4] = biological target: T3, Muscarinic acetylcholine receptor M5 (Homo sapiens, UniProt P08912); assay type: cell membranes, CHO-K1, Membrane; conditions: cho-k1; note: in other assays of this panel Not Active means under 50% inhibition at 10 µM
T3 sequence (P08912 whole entry): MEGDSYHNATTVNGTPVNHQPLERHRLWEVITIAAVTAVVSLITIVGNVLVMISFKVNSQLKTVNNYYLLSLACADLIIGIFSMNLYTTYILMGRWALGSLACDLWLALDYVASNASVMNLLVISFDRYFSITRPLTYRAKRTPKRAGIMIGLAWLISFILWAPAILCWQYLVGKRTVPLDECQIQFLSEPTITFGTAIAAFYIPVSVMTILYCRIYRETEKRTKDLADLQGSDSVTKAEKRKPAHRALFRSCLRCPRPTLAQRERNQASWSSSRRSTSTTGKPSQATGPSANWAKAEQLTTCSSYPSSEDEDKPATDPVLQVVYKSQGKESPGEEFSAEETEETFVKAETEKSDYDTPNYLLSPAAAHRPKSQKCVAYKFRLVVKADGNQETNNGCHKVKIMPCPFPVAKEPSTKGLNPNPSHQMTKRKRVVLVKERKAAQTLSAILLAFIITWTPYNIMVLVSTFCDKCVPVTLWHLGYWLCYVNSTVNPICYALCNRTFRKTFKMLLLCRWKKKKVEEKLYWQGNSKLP

[5] = DRUGMATRIX: Purinergic P2X radioligand binding (ligand: [3H] alpha, beta-Methylene-ATP); assay type: cell membranes, Oryctolagus cuniculus, New Zealand albino, Urinary bladder, Membrane; conditions: Not Active = under 50% inhibition at 10 µM
[6] = DRUGMATRIX: beta-Lactamase enzyme inhibition (substrate: Nitrocefin); design: species or system Bacillus cereus; conditions: Not Active = under 50% inhibition at 10 µM

Mitogen-activated protein kinase 14, sequence (Q16539 whole entry): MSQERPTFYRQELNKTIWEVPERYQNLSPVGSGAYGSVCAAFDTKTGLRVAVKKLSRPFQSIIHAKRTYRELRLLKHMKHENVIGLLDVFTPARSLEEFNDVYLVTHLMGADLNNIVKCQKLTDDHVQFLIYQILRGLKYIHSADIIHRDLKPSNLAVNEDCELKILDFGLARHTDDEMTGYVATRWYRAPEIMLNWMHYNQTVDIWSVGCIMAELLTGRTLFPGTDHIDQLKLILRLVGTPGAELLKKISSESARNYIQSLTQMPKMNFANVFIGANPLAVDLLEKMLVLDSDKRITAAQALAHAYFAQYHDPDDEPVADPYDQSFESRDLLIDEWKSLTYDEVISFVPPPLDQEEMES

| Compound | IC50 (Substance-K receptor; cho) | IC50 [1] | IC50 ([2]; bti-tn-5b1-4) | IC50 [3] | Ki [3] | IC50 [4] | IC50 [5] | Ki [5] | IC50 [6] | Ki [6] | IC50 ([2]; read-out: IC50) | IC50 (Substance-K receptor; read-out: IC50) | Ki (Substance-K receptor; read-out: Ki) | Ki (Substance-K receptor; cho) | Ki [1] | Ki ([2]; bti-tn-5b1-4) | Ki [4] |
| --- | --- | --- | --- | --- | --- | --- | --- | --- | --- | --- | --- | --- | --- | --- | --- | --- | --- |
| CCN[C@@H]1C[C@H](N)[C@@H](O[C@H]2OC(CN)=CC[C@H]2N)[C@H](O)[C@H]1O[C@H]1OC[C@](C)(O)[C@H](NC)[C@H]1O [NETILMICIN] | Not Active | Not Active | Not Active | Not Active | Not Active | Not Active | Not Active | Not Active | Not Active | Not Active | – | – | – | – | – | – | – |
| COC(=O)C1=C(C)NC(C)=C(C(=O)OCC(C)C)C1c1ccccc1[N+](=O)[O-] (stereo not given) [NISOLDIPINE] | Not Active | Not Active | Not Active | Not Active | Not Active | Not Active | Not Active | Not Active | Not Active | Not Active | – | – | – | – | – | – | – |
| CCOC(=O)C1=C(C)NC(C)=C(C(=O)OC)C1c1cccc([N+](=O)[O-])c1 (stereo not given) [NITRENDIPINE] | Not Active | Not Active | Not Active | Not Active | Not Active | Not Active | Not Active | Not Active | Not Active | Not Active | – | – | – | – | – | – | – |
| C#C[C@]1(OC(C)=O)CC[C@H]2[C@@H]3CCC4=CC(=O)CC[C@@H]4[C@H]3CC[C@@]21C [NORETHINDRONE ACETATE] | Not Active | Not Active | Not Active | Not Active | Not Active | Not Active | Not Active | Not Active | Not Active | Not Active | – | – | – | – | – | – | – |
| COc1ccc2[nH]c([S+]([O-])Cc3ncc(C)c(OC)c3C)nc2c1 (stereo not given) [OMEPRAZOLE] | Not Active | Not Active | Not Active | Not Active | Not Active | Not Active | Not Active | Not Active | Not Active | Not Active | – | – | – | – | – | – | – |
| Cc1nccn1CC1CCc2c(c3ccccc3n2C)C1=O (stereo not given) [ONDANSETRON] | Not Active | Not Active | Not Active | Not Active | Not Active | Not Active | Not Active | Not Active | Not Active | Not Active | – | – | – | – | – | – | – |
| CCn1cc(C(=O)O)c(=O)c2cc(F)c(N3CCN(C)CC3)cc21 [PEFLOXACIN] | Not Active | Not Active | Not Active | Not Active | Not Active | Not Active | Not Active | Not Active | Not Active | Not Active | – | – | – | – | – | – | – |
| CCCCOc1ccc(OCCCN2CCOCC2)cc1 [PRAMOXINE] | Not Active | Not Active | Not Active | Not Active | Not Active | Not Active | Not Active | Not Active | Not Active | Not Active | – | – | – | – | – | – | – |
| O=C(C1CCCCC1)N1CC(=O)N2CCc3ccccc3C2C1 (stereo not given) [PRAZIQUANTEL] | Not Active | Not Active | Not Active | Not Active | Not Active | Not Active | Not Active | Not Active | Not Active | Not Active | – | – | – | – | – | – | – |
| CCN(CC)CCOC(=O)c1ccc(N)cc1 [PROCAINE] | Not Active | Not Active | Not Active | Not Active | Not Active | Not Active | Not Active | Not Active | Not Active | Not Active | – | – | – | – | – | – | – |
| CCCN(CCC)C(=O)C(CCC(=O)O)NC(=O)c1ccccc1 (stereo not given) [PROGLUMIDE] | Not Active | Not Active | Not Active | Not Active | Not Active | Not Active | Not Active | Not Active | Not Active | Not Active | – | – | – | – | – | – | – |
| NC(=O)c1cnccn1 [PYRAZINAMIDE] | Not Active | Not Active | Not Active | Not Active | Not Active | Not Active | Not Active | Not Active | Not Active | Not Active | – | – | – | – | – | – | – |
| Cc1cc2cc3c(C)cc(=O)oc3c(C)c2o1 [TRIOXSALEN] | Not Active | Not Active | – | Not Active | Not Active | Not Active | Not Active | Not Active | Not Active | Not Active | 831 nM | – | – | – | – | – | – |
| CCCC(CCC)C(=O)O [VALPROIC ACID] | Not Active | Not Active | Not Active | Not Active | Not Active | Not Active | Not Active | Not Active | Not Active | Not Active | – | – | – | – | – | – | – |
| CCC1=C[C@@H]2CN(C1)Cc1c([nH]c3ccccc13)[C@@](C(=O)OC)(c1cc3c(cc1OC)N(C)[C@H]1[C@@](O)(C(=O)OC)[C@H](OC(C)=O)[C@]4(CC)C=CCN5CC[C@]31[C@@H]54)C2 [VINORELBINE] | – | Not Active | Not Active | Not Active | Not Active | Not Active | Not Active | Not Active | Not Active | Not Active | – | 1610 nM | 536 nM | – | – | – | – |
| CADMIUM DICHLORIDE | Not Active | Not Active | Not Active | Not Active | Not Active | Not Active | Not Active | Not Active | Not Active | Not Active | – | – | – | Not Active | Not Active | Not Active | Not Active |
